Assay results from patent publication US8703749B2, “Compositions and methods for treating Friedreich's Ataxia” (priority 2009, dated 2014).
Where a SMILES comes first, the peptide text is derived from it. The star is where a group is joined. Cbz = O=C(OCc1ccccc1)*

Tests used:
frataxin [1] = biological target: T1, frataxin (Homo sapiens, UniProt Q16595); experiment: Frataxin accumulation in HEK-293 Flp-In cells stably expressing frataxin 1-210 (WB, FACS); type: cell-based; set-up: HEK-293 Flp-In cells stably transfected with frataxin^1-210; expressed in transfected cells; details: HEK-293 Flp-In frataxin 1-210
T1 sequence (Q16595 42-210): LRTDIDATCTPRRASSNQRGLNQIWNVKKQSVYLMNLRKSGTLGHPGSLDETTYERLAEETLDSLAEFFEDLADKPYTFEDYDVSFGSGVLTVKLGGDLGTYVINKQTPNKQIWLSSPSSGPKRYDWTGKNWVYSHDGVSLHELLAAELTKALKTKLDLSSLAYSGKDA
Protocol: (§1) Human embryonic kidney HEK-293 cells and Hela cells were maintained in DMEM supplemented with 10% FBS. HEK-293 were transfected with the calcium/phosphate precipitation method, using 20 μg total DNA (10 μg pIRES-frataxin and 10 μg HA-Ub, or corresponding empty vectors) on 10 cm dishes. Hela cells were transfected using Lipofectamine 2000 reagents (Invitrogen), according to manufacturer's instructions. Where indicated, the day after transfection, cells were treated for 16 h with 10 μM proteasome inhibitors, MG132 or Lactacystin, or 50 ng/ml DUB inhibitor Ubiquitin-Aldehyde. Flp-In-HEK-293 cells (Invitrogen) are HEK-293 variants allowing the stable and isogenic integration and expression of a transfected gene. Flp-In-HEK-293 cells were maintained in DMEM supplemented with 10% FBS and transfected with the calcium/phosphate precipitation method. Briefly, cells were plated on 10 cm dishes and transfected with 10 μg total DNA. The HEK-293 clone stably expressing frataxin^1-210 was previously described (4). The HEK-293 clone stably expressing frataxin^K147R was obtained from cultures in selection medium containing 100 μg/ml hygromycin B (Invitrogen). FRDA lymphoblasts GM15850, GM16798 and GM16241, as well control lymphoblasts GM15851, GM16241 and GM16215, were maintained in RPMI supplemented with 15% FBS. Treatments with specific ubiquitin-competing molecules were performed in 20% FBS containing medium. FRDA fibroblasts GM03816 were maintained in DMEM supplemented with 15% FBS.
(§2) Cell extracts were prepared in modified RIPA buffer (10 mM sodium phosphate pH7.2, 150 mM NaCl, 1% Na deoxycholate, 0.1% SDS, 1% Np40, 2 mM EDTA) or IP buffer (50 mM Tris-HCl, pH 7.5, 150 mM NaCl, 1% Nonidet P-40, 5 mM EDTA, 5 mM EGTA) supplemented with Complete protease inhibitor cocktail and 2 mM N-Ethylmaleimide (NEM). For immunoblotting, 100 μg of protein extract were separated on 12% SDS-PAGE, blotted onto nitrocellulose membrane and detected with specific antibodies. For in vivo detection of ubiquitin-conjugates […] and 50 ng/ml Ubiquitin-Aldehyde were added to the lysis buffer. For immunoprecipitation, 5 mg of total protein extract prepared as above were incubated for 1-2 h at 4° C. with specific antibodies, previously conjugated to Protein G-sepharose (GE Healthcare). Immunocomplexes were then resolved and analysed by SDS-PAGE. […] Densitometric analysis was performed using ImageJ software.
Cells were collected after the indicated treatments and fixed for 20 minutes in 4% paraformaldehyde at room temperature. Cells were then permeabilized and blocked in a blocking solution (3% FBS in PBS) containing 0.2% Triton, for 1 hour at room temperature. Cells were then incubated overnight at 4° C. with anti-frataxin monoclonal antibody (MAB-10485, Immunological Science) or anti-Bcl2 monoclonal antibody (sc-509, Santa Cruz) diluted 1:200 in blocking solution. Cells were then washed 3 times in PBS and incubated for 1 hour at room temperature with FITC-conjugated goat anti-mouse IgG/IgM (BD Bioscience Pharmingen) diluted 1:200 in blocking solution. After washing 3 times with PBS cells were analyzed by flow cytometry (Becton Dickinson).
HEK-293 Flp-In cells stably transfected with frataxin^1-210 were treated for the indicated times with 10 μM MG132. Total cell extracts were blotted as in A. One representative experiment out of four performed with similar results is shown in FIG. 18.
Formula III induces frataxin precursor accumulation. HEK-293 Flp-In cells stably expressing frataxin^1-210 were treated for the indicated days with 20 μM of Formula III or 10 μM MG132. Total cell extracts were resolved on SDS-PAGE and analyzed with anti-frataxin antibody, or anti-tubulin, as a loading control.
Formula III induces mature frataxin accumulation. HEK-293 Flp-In cells stably expressing frataxin^1-210 were treated and analyzed as in B. One representative experiment out of three performed with similar results is shown FIG. 5C. […]

frataxin [2] = biological target: T1, frataxin; experiment: Frataxin ubiquitination in HEK-293 cells co-transfected with HA-Ub and frataxin 1-210 (IP/WB); type: cell-based; set-up: HEK-293 cells transiently transfected with frataxin^1-210 and HA-tagged ubiquitin (HA-Ub); expressed in transfected cells; host or cells: HEK-293
Protocol: as §1, with “The HEK-293 clone stably expressing frataxin^K147R was obtained from cultures in selection medium containing 100 μg/ml hygromycin B (Invitrogen). FRDA lymphoblasts GM15850, GM16798 and GM16241, as well control lymphoblasts GM15851, GM16241 and GM16215, were maintained in RPMI supplemented with 15% FBS. Treatments with specific ubiquitin-competing molecules were performed in 20% FBS containing medium. FRDA fibroblasts GM03816 were maintained in DMEM supplemented with 15% FBS.” left out
(§3) Cell extracts were prepared in modified RIPA buffer (10 mM sodium phosphate pH7.2, 150 mM NaCl, 1% Na deoxycholate, 0.1% SDS, 1% Np40, 2 mM EDTA) or IP buffer (50 mM Tris-HCl, pH 7.5, 150 mM NaCl, 1% Nonidet P-40, 5 mM EDTA, 5 mM EGTA) supplemented with Complete protease inhibitor cocktail and 2 mM N-Ethylmaleimide (NEM). For immunoblotting, 100 μg of protein extract were separated on 12% SDS-PAGE, blotted onto nitrocellulose membrane and detected with specific antibodies. […] Immunocomplexes were then resolved and analysed by SDS-PAGE. […]
FIG. 2A illustrates HEK-293 cells transiently transfected with frataxin^1-210 and HA-tagged ubiquitin (HA-Ub) (where indicated) were treated with 10 μM MG132 (MG) for 16 h. […] Total cell extracts (lanes 1-4) or anti-HA immunoprecipitates (lanes 5-8) were analyzed by WB with anti-frataxin antibody. […]
Formula III prevents frataxin ubiquitination. […] Total cell extracts (upper panel) or anti-HA immunoprecipitated proteins (lower panel) were detected with anti-frataxin antibody.

frataxin [3] = biological target: T1, frataxin; experiment: Frataxin accumulation in FRDA lymphoblasts (FACS, SDS-PAGE/western blot); type: cell-based; details: FRDA lymphoblasts GM15850; 50 μM; 6 days
Protocol: as §1, with “The HEK-293 clone stably expressing frataxin^K147R was obtained from cultures in selection medium containing 100 μg/ml hygromycin B (Invitrogen). FRDA lymphoblasts GM15850, GM16798 and GM16241, as well control lymphoblasts GM15851, GM16241 and GM16215, were maintained in RPMI supplemented with 15% FBS. Treatments with specific ubiquitin-competing molecules were performed in 20% FBS containing medium. FRDA fibroblasts GM03816 were maintained in DMEM supplemented with 15% FBS.” left out
as §3
Cells were collected after the indicated treatments and fixed for 20 minutes in 4% paraformaldehyde at room temperature. […] After washing 3 times with PBS cells were analyzed by flow cytometry (Becton Dickinson).
FRDA lymphoblasts GM15850 were cultured for 6 days in the presence of 50 μM Formula IV or Formula VI. Cells were then fixed, stained with anti-frataxin antibody or anti-Bcl2, as a control, and analyzed by flow cytometry. […]

FRDA cells = experiment: Tolerability by FRDA cells; type: cell-based, human; details: among the different ubiquitin-competing molecules
frataxin [4] = experiment: Frataxin precursor accumulation in HeLa cells transiently transfected with frataxin 1-210 (immunoblot); type: cell-based, human; details: 10 μM proteasome inhibitor, 18 h
Protocol: Human embryonic kidney HEK-293 cells and Hela cells were maintained in DMEM supplemented with 10% FBS. HEK-293 were transfected with the calcium/phosphate precipitation method, using 20 μg total DNA (10 μg pIRES-frataxin and 10 μg HA-Ub, or corresponding empty vectors) on 10 cm dishes. Hela cells were transfected using Lipofectamine 2000 reagents (Invitrogen), according to manufacturer's instructions. […] Flp-In-HEK-293 cells (Invitrogen) are HEK-293 variants allowing the stable and isogenic integration and expression of a transfected gene. Flp-In-HEK-293 cells were maintained in DMEM supplemented with 10% FBS and transfected with the calcium/phosphate precipitation method. Briefly, cells were plated on 10 cm dishes and transfected with 10 μg total DNA. The HEK-293 clone stably expressing frataxin^1-210 was previously described (4). […]
as §3

frataxin precursor = experiment: Cycloheximide chase of frataxin precursor degradation in HEK-293 Flp-In cells; type: cell-based, human; details: 100 μg/ml cycloheximide, 10 μM MG132
Protocol: as §2
HEK-293 Flp-In cells stably transfected with frataxin^1-210 (FIG. 1E) or empty vector (FIG. 1G) were treated for the indicated times with 100 μg/ml cycloheximide (CHX) in the presence or absence of 10 μM MG132 (MG). […] One representative experiment out of five performed with similar results is shown. Pre: precursor, tub: tubulin.

With `O=[N+]([O-])c1cc(/C=N/NS(=O)(=O)c2ccc(F)cc2)c(O)c([N+](=O)[O-])c1` [Formula III] the “accumulation of the frataxin precursor” value (frataxin [1]; 20 μM, days, WB) was “substantial accumulation”, the “accumulation of mature frataxin” value (frataxin [1]; 20 μM, over a longer time period, WB) was “substantial accumulation” and the “ubiquitination of frataxin 1-210” value (frataxin [2]; HEK-293 co-transfected with HA-Ub and frataxin 1-210, 20 μM and 50 μM, revealed after 48 h) was “efficiently prevents the ubiquitination”.
In the case of `O=[N+]([O-])c1cccc(/C=N/NS(=O)(=O)c2ccc(F)cc2)c1O` [Formula VI], the “frataxin accumulation by FACS analysis” value (frataxin [3]) is reported as “discrete frataxin accumulation detectable in all cells”, the “tolerability by FRDA cells” value (FRDA cells) is reported as “best tolerated” and the “frataxin accumulation by WB and FACS analysis” value (frataxin [1]; 100 μM, 18 hours) is reported as “effective in inducing frataxin accumulation”.
With `CC(C)C[C@@H](C=O)NC(=O)[C@H](CC(C)C)NC(=O)[C@H](CC(C)C)NC(=O)OCc1ccccc1` [MG132] (Cbz-Leu-Leu-Leu-aldehyde) the “accumulation of frataxin precursor compared to untreated cells” value (frataxin [4]) was “significantly higher amounts of precursor”, the “degradation of the endogenous frataxin precursor” value (frataxin precursor; HEK-293 Flp-In empty vector) was “prevents the degradation” and the “time-dependent degradation of the frataxin precursor” value (frataxin precursor; HEK-293 Flp-In frataxin 1-210) was “blocked”. The “accumulation of mature frataxin” value (frataxin [1]; 10 μM MG132, after 24 hrs) was roughly 2.5 fold, the “accumulation of the frataxin precursor” value (frataxin [1]; 10 μM MG132, after 24 hrs) was greater than 15 fold and the “accumulation of mono-ubiquitinated frataxin” value (frataxin [2]; HEK-293 co-transfected with frataxin 1-210 and HA-Ub, 10 μM MG132, 16 h) was “allows the accumulation and detection of mono-ubiquitinated frataxin”. For the same molecule, the “accumulation of poly-ubiquitinated frataxin” value (frataxin [2]; HEK-293 co-transfected with frataxin 1-210 and HA-Ub, 10 μM MG132, 16 h, frataxin IP, anti-Ub WB) was “allows the accumulation and detection also of poly-ubiquitinated frataxin”.
In the case of `CC(=O)N[C@@H](CSC(=O)[C@]1([C@@H](O)C(C)C)NC(=O)[C@H](C)[C@@H]1O)C(=O)O` [lactacystin], the “accumulation of frataxin precursor compared to untreated cells” value (frataxin [4]) is reported as “significantly higher amounts of precursor”.
